# Reference: patent US20130225548A1, “Pyridine Derivative and Medicinal Agent” (NIPPON SHINYAKU CO., LTD., priority 2010, published 2013)
# Where a name gives a salt, the structure may show the parent alone.
# Biological target: T1, Syk tyrosine kinase (Homo sapiens, UniProt P43405)
# T1 construct: purchased Carna Biosciences, Inc
# Assay: Test for Syk tyrosine kinase inhibitory activity (ELISA)
# Assay type: biochemical
# Conditions: Syk tyrosine kinase (Carna Biosciences), 25 μM ATP in substrate solution, 30° C. 1 hour, n=2; read-out: Evaluation (IC50, concentration inhibiting the tyrosine kinase activity at 50%)
# In short: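 Syk kinase (0.025 nM stock before addition) with 625 nM biotinylated peptide and 25 μM ATP (substrate-solution levels) in Tris pH 7.5, MgCl2, DTT; 1 h at 30 °C on streptavidin plates. Phosphotyrosine detected by HRP anti-pTyr antibody, TMB, A450; IC50 by non-linear regression.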
row,Compound,IC50 [µM]
1,"COC(=O)CCn1cnc2ccc(-c3cc(C4CC4)cc(Nc4cc(C#N)ccn4)n3)cc21 [Example 126, methyl 3-(6-{6-[(4-cyanopyridin-2-yl)amino]-4-cyclopropylpyridin-2-yl}1H-benzimidazol-1-yl)propanonate hydrochloride]",0.05 to 0.5
2,"N#Cc1ccnc(Nc2cc(C3CC3)cc(-c3ccc4ncn(CCCCO)c4c3)n2)c1 [Example 127, 2-({4-cyclopropyl-6-[1-(4-hydroxybutyl)-1H-benzimidaxol-6-yl]pyridin-2-yl}amino)pyridine-4-carbonitrile hydrochloride]",0.005 to 0.05
3,"N#Cc1ccnc(Nc2cc(C3CC3)cc(-c3ccc4c(c3)ncn4CCC(N)=O)n2)c1 [Example 129, 3-(5-{6-[(4-cyanopyridin-2-yl)amino]-4-cyclopropylpyridin-2-yl}-1H-benzimidazol-1-yl)propanamide hydrochloride]",0.005 to 0.05
4,"N#Cc1ccnc(Nc2cc(C3CC3)cc(-c3ccc4ncn(Cc5cccnc5)c4c3)n2)c1 [Example 130, 2-({4-cyclopropyl-6-[1-(pyridin-3-ylmethyl)-1H-benzimidazol-6-yl]pyridin-2-yl}amino)pyridine-4-carbonitrile hydrochloride]",0.05 to 0.5
5,"CN(C)C(=O)CCn1cnc2cc(-c3cc(C4CC4)cc(Nc4cc(C#N)ccn4)n3)ccc21 [Example 131, 3-(5-{6-[(4-cyanopyridin-2-yl)amino]-4-cyclopropylpyridin-2-yl}-1H-benzimidazol-1-yl)-N,N-dimethylproanamide hydrochloride]",0.05 to 0.5
6,"CNC(=O)CCn1cnc2cc(-c3cc(C4CC4)cc(Nc4cc(C#N)ccn4)n3)ccc21 [Example 132, 3-(5-{6-[(4-cyanopyridin-2-yl)amino]-4-cyclopropylpyridin-2-yl}-1H-benzimidazol-1-yl)-N-methylpropanamide hydrochloride]",0.05 to 0.5
7,"N#Cc1ccnc(Nc2cc(C3CC3)cc(-c3ccc4ncn(Cc5ccncc5)c4c3)n2)c1 [Example 133, 2-({4-cyclopropyl-6-[1-(pyridin-4-ylmethyl)-1H-benzimidazol-6-yl]pyridin-2-yl}amino)pyridine-4-carbonitrile hydrochloride]",0.005 to 0.05
8,"N#CCCn1cnc2cc(-c3cc(C4CC4)cc(Nc4cc(C#N)ccn4)n3)ccc21 [Example 134, 2-({6-[1-(2-cyanoethyl)-1H-benzimidazol-5-yl]-4-cyclopropylpyridin-2-yl}amino)pyridine-4-carbonitrile hydrochloride]",0.005 to 0.05
9,"N#Cc1ccnc(Nc2cc(C3CC3)cc(-c3ccc4ncn(C5(CO)CCCCC5)c4c3)n2)c1 [Example 135, 2-[(4-cyclopropyl-6-(1-[1-(hydroxymethyl)cyclohexyl]-1H-benzimidazol-6-yl)pyridin-2-yl)amino]pyridine-4-carbonitrile hydrochloride]",0.005 to 0.05
10,"N#Cc1ccnc(Nc2cc(C3CC3)cc(-c3ccc4ncn(C5CCC(F)(F)CC5)c4c3)n2)c1 [Example 136, 2-({4-cyclopropyl-6-[1-(4,4-difluorocyclohexyl)-1H-benzimidazol-6-yl]pyridine-2-yl}amino)pyridine-4-carbonitrile hydrochloride]",0.05 to 0.5
11,"N#Cc1ccnc(Nc2cc(C3CC3)cc(-c3ccc4c(c3)ncn4Cc3ccccc3)n2)c1 [Example 137, 2-{[6-(1-benzyl-1H-benzimidazol-5-yl)-4-cyclopropylpyridin-2-yl]amino}pyridine-4-carbonitrile hydrochloride]",0.05 to 0.5
12,"CO[C@H]1CC[C@H](n2cnc3ccc(-c4cc(C5CC5)cc(Nc5cc(C#N)ccn5)n4)cc32)CC1 [Example 138, 2-({4-cyclopropyl-6-[1-(trans-4-methoxycyclohexyl)-1H-benzimidazol-6-yl]pyridin-2-yl}amino)pyridine-4-carbonitrile hydrochloride]",0.05 to 0.5
13,"N#Cc1ccnc(Nc2cc(C3CC3)cc(-c3ccc4ncn(C5CCOCC5)c4c3)n2)c1 [Example 139, 2-({4-cyclopropyl-6-[1-(tetrahydro-2H-pyran-4-yl)-1H-benzimidazol-6-yl]pyridin-2-yl}amino)pyridine-4-carbonitrile hydrochloride]",0.005 to 0.05
14,"N#Cc1ccnc(Nc2cc(C3CC3)cc(-c3ccc4ncn(C5CCCC5O)c4c3)n2)c1 (stereo not drawn) [Example 140, 2-[(4-cyclopropyl-6-{1-[trans-2-hydroxycyclopenyl]-1H-benzimidazol-6-yl}pyridine-2-yl)amino]pyridine-4-carbonitrile hydrochloride]",0.005 to 0.05
15,"CCn1cnc2ccc(-c3cc(C4CC4)cc(Nc4cc(C#N)ccn4)n3)cc21 [Example 142, 2-{[4-cyclopropyl-6-(1-ethyl-1H-benzimidazol-6-yl)pyridin-2-yl]amino}pyridine-4-carbonitrile hydrochloride]",0.05 to 0.5
16,"N#Cc1ccnc(Nc2cc(C3CC3)cc(-c3ccc4ncn(C(CO)CO)c4c3)n2)c1 [Example 143, 2-({4-cyclopropyl-6-[1-(1,3-dihydroxypropan-2-yl)-1H-benzimidazol-6-yl]pyridin-2-yl}amino)pyridine-4-carbonitrile hydrochloride]",0.005 to 0.05
17,"CC(C)(O)Cn1cnc2ccc(-c3cc(C4CC4)cc(Nc4cc(C#N)ccn4)n3)cc21 [Example 144, 2-({4-cyclopropyl-6-[1-(2-hydroxy-2-methylpropyl)-1H-benzimidazol-6-yl]pyridin-2-yl}amino)pyridine-4-carbonitrile hydrochloride]",0.05 to 0.5
18,"N#Cc1ccnc(Nc2cc(C3CC3)cc(-c3ccc4ncn([C@H]5CC[C@@H](O)CC5)c4c3)n2)c1 [Example 145, 2-({4-cyclopropyl-6-[1-(cis-4-hydroxycyclohexyl)-1H-benzimidazol-6-yl]pyridin-2-yl}amino)pyridine-4-carbonitrile hydrochloride]",0.005 to 0.05
19,"N#Cc1ccnc(Nc2cc(C3CC3)cc(-c3ccc4c(c3)ncn4CCO)n2)c1 [Example 147, 2-({4-cyclopropyl-6-[1-(2-hydroxyethyl)-1H-benzimidazol-5-yl]pyridin-2-yl}amino)pyridine-4-carbonitrile hydrochloride]",0.05 to 0.5
20,"COCCn1cnc2cc(-c3cc(C4CC4)cc(Nc4cc(C#N)ccn4)n3)ccc21 [Example 148, hydrochloride]",0.05 to 0.5
21,"CCn1cnc2cc(-c3cc(C4CC4)cc(Nc4cc(C#N)ccn4)n3)ccc21 [Example 149, 2-{[4-cyclopropyl-6-(1-ethyl-1H-benzimidazol-5-yl)pyridin-2-yl]amino}pyridine-4-carbonitrile hydrochloride]",0.05 to 0.5

# Now from value to compound:
row,IC50 [µM],Compound
1,0.05 to 0.5,"N#Cc1ccnc(Nc2cc(C3CC3)cc(-c3ccc4c(c3)ncn4C3CC3)n2)c1 [Example 150, 2-{[4-cyclopropyl-6-(1-cyclopropyl-1H-benzimidazol-5-yl)pyridin-2-yl]amino}pyridin-4-carbonitrile hydrochloride]"
2,0.005 to 0.05,"CC(=O)NCCn1cnc2cc(-c3cc(C4CC4)cc(Nc4cc(C#N)ccn4)n3)ccc21 [Example 151, N-[2-(5-{6-[(4-cyanopyridin-2-yl)amino]-4-cyclopropylpyridin-2-yl}-1H-benzimidazol-1-yl)ethyl]acetamide hydrochloride]"
3,0.005 to 0.05,"Cn1cnc2ccc(-c3cc(C4CC4)cc(Nc4cc(C#N)ccn4)n3)cc21 [Example 153, 2-{[4-cyclopropyl-6-(1-methyl-1H-benzimidazol-6-yl)pyridin-2-yl]amino}pyridine-4-carbonitrile hydrochloride]"
4,0.05 to 0.5,"N#Cc1ccnc(Nc2cc(C3CC3)cc(-c3ccc(CN4CCCN(C(N)=O)CC4)nc3)n2)c1 [Example 154, 4-({6-[(4-cyanopyridin-2-yl)amino]-4-cyclopropyl-2,3′-bipyridin-6′-yl}methyl)-1,4-diazepane-1-carboxamide hydrochloride]"
5,0.005 to 0.05,"Cc1cc(N2CCS(=O)(=O)CC2)ncc1-c1cc(C2CC2)cc(Nc2cc(C#N)ccn2)n1 [Example 155, 2-{[4-cyclopropyl-6′-(1,1-dioxidethiomorpholin-4-yl)-4′-methyl-2,3′-bipyridin-6-yl]amino}pyridine-4-carbonitrile hydrochloride]"
6,< 0.005,"N#Cc1ccnc(Nc2cc(C3CC3)cc(-c3ccc4[nH]c(=O)n([C@H]5CC[C@H](O)CC5)c4c3)n2)c1 [Example 156, 2-({4-cyclopropyl-6-[3-(trans-4-hydroxycyclohexyl)-2oxo-2,3-dihydro-1H-benzimidazol-5-yl]pyridin-2-yl}amino)pyridine-4-carbonitrile hydrochloride]"
7,< 0.005,"N#Cc1ccnc(Nc2cc(C3CC3)cc(-c3ccc4ccnc(N5CCNC(=O)C5)c4c3)n2)c1 [Example 158, 2-({4-cyclopropyl-6-[1-(3-oxopiperazin-1-yl)isoquinolin-7-yl]pyridin-2-yl}amino)pyridine-4-carbonitrile hydrochloride]"
8,< 0.005,"Cc1nc2ccc(-c3cc(C4CC4)cc(Nc4cc(C#N)ccn4)n3)cc2n1[C@H]1CC[C@H](O)CC1 [Example 159, 2-({4-cyclopropyl-6-[1-trans-4-hydroxycylohexyl)-2-methyl-1H-benzimidazol-6-yl]pyridin-2-yl}amino)pyridine-4-carbonitrile hydrochloride]"
9,< 0.005,"CC(C)c1nc2ccc(-c3cc(C4CC4)cc(Nc4cc(C#N)ccn4)n3)cc2n1[C@H]1CC[C@H](O)CC1 [Example 161, 2-({4-cyclopropyl-6-[1-(trans-4-hydroxycyclohexyl)-2-(propan-2-yl)-1H-benzimidazol-6-yl]pyridin-2-y}amino)pyridine-4-carbonitrile hydrochloride]"
10,< 0.005,"N#Cc1ccnc(Nc2cc(C3CC3)cc(-c3ccc4nc(CO)n([C@H]5CC[C@H](O)CC5)c4c3)n2)c1 [Example 162, 2-({4-cyclopropyl-6-[1-(trans-4-hydroxycyclohexyl)-2-(hydroxymethyl)-1H-benzimidazol-6-yl]pyridin-2-yl}amino)pyridine-4-carbonitrile hydrochloride]"
